Test results taken from patent US20150352040A1 (priority 2010, published 2015).
Where two headings read alike, the source gives them in different places.

What was measured:
[1] = in comparison to a 15 mg dose of hydrocodone
Source text: In certain preferred embodiments, the opioid agonist is hydrocodone.

[2] = milligram-for-milligram basis; cited from earlier work
[3] = TRNA therapy with topical apomorphine, onset of clinical effect; assay type: in vivo, human
human patients [4] = test system: human patients
patients [5] = test: Compounded topical morphine sulfate and tramadol, inventor's clinical experience (nuchal and peripheral application); conditions: patients tapering off oral narcotics, nuchal delivery as only pain therapy
Procedure: The dose for MS has been 2.5-5.0 mg and for tramadol, 40-80 mg, divided over two to three locations, as described herein.
With activation of opioid receptors potentially providing improved pain relief, MS and tramadol were compounded for topical administration.

human patients [6] = test: Efficacy of topical opioid analgesic formulations in human patients (Example 6); assay type: in vivo
Source text: The efficacy of topical opioid analgesic formulations was studied in human patients.

[7] = compounded morphine in cold cream applied locally to skin at areas of pain; cited from earlier work
patient = conditions: 1 mg twice daily
[8] = cited from earlier work
patients [9] = conditions: cited from earlier work
[10] = case 4, acute lumbar sprain, 1.0 mg application
[11] = Patient C, 40 mg topical divided between knee and lower back
[12] = Patient E, 40 mg topical to neck and back in divided dose
[13] = Patient F, 40 mg topical to nuchal region and lower back in divided doses
[14] = Patient H, 40 mg topical in 1 ml Lipoderm

With COc1ccc2c3c1O[C@H]1[C@@H](O)C=C[C@H]4[C@@H](C2)N(C)CC[C@@]341 [Codeine] the “Calculated Dose (mg), equianalgesic” value [1] was 90.0 mg.
In the case of CC(=O)Oc1ccc2c3c1O[C@H]1[C@@H](OC(C)=O)C=C[C@H]4[C@@H](C2)N(C)CC[C@@]341 [Heroin, diacetylmorphine], the “potency relative to morphine” value [2] is listed as 1.5-2 times.
For COc1ccc2c3c1O[C@H]1C(=O)CC[C@H]4[C@@H](C2)N(C)CC[C@]314 [Hydrocodone], the “Calculated Dose (mg), equianalgesic” value [1] was 15.0 mg.
With CN1CC[C@]23CCCC[C@H]2[C@H]1Cc1ccc(O)cc13 [Levorphanol] the “Calculated Dose (mg), equianalgesic” value [1] was 1.8 mg.
With CCC(=O)C(CC(C)N(C)C)(c1ccccc1)c1ccccc1 (stereo not drawn) [Methadone] the “Calculated Dose (mg), equianalgesic” value [1] was 9.0 mg.
In the case of COc1ccc2c3c1O[C@H]1C(=O)CC[C@@]4(O)[C@@H](C2)N(C)CC[C@]314 [Oxycodone], the “Calculated Dose (mg), equianalgesic” value [1] is reported as 13.5 mg.
In the case of CN1CCc2cccc3c2[C@H]1Cc1ccc(O)c(O)c1-3 [apomorphine], the “onset of clinical effect” value [3] is reported as 10 to 15 min, the “time to pain relief, all patients” value (human patients [4]; Example 3, cream of Example 1 over nerve entrapment areas or affected muscle) is reported as 5 to 10 min and the “outcome, carpal tunnel syndrome” value (human patients [4]; case 1, pregnant person, 0.5 mg at the wrist) is reported as “without recurrent symptoms”. For the same molecule, the pain relief (human patients [4]; case 2, additional 0.5 mg after 24 hours) was “complete pain relief”, the pain relief (human patients [4]; case 2, tarsal tunnel syndrome/plantar fasciitis, runner, 0.5 mg application) was 90% and the “outcome, pain” value (human patients [4]; case 3, hamstring injury, 0.5 mg) was “complete resolution of pain without recurrence”. The “time to resolution of pain” value (human patients [4]; case 3, hamstring injury, 0.5 mg to muscle and insertion site) was 5 to 10 min, the “pain and spasm relief” value (human patients [4]; case 4 (person one), acute lumbar sprain, 1.0 mg application) was 80-90% and the duration of relief (human patients [4]; [10]) was “lasted overnight”. For the same molecule, the “time to pain and spasm relief” value (human patients [4]; [10]) was 10 to 15 min, the “outcome, acute lumbar sprain from lifting” value (human patients [4]; case 5, 0.5 mg application and heating pad) was “without recurrent symptoms” and the “outcome, foot pain from stress fractures and tarsal tunnel” value (human patients [4]; case 6, marathon runner, 0.5 mg to base of toe and 0.5 to tarsal tunnel) was “experienced pain relief”. The “tolerability of increased single dose” value (human patients [4]; single topical dose increased to 2 mg, peripheral application) was “without deleterious effects”.
For CN1CC[C@]23c4c5ccc(O)c4O[C@H]2[C@@H](O)C=C[C@H]3[C@H]1C5.O=S(=O)(O)O [morphine sulfate], the narcotic withdrawal symptoms (patients [5]) was “no significant narcotic withdrawal symptoms”, the “further reduction in pain from baseline” value (human patients [6]; Patient G, 3 mg topical in Pass-gel to the nuchal region, on oral oxycodone) was 20-30% and the “reduction in baseline back and hip pain” value (human patients [6]; Patient I, topical 2.5 mg in 0.5 ml Pass-gel, despite regular narcotics) was 15-20%. For the same molecule, the “time to reduction in pain” value (human patients [6]; Patient K, topical 2.5 mg to the nuchal region) was 10 to 15 min, the “headache and neck pain after treatment” value (human patients [6]; Patient K, topical 2.5 mg to the nuchal region, from "severe") was 0-1 of 10 and the “time to reduction in pain” value (human patients [6]; Patient L, topical 2.5 mg to the nuchal region) was 8 to 10 min. The pain after treatment (human patients [6]; Patient L, topical 2.5 mg to the nuchal region, from about 8 of 10) was “about 4 of 10”.
In the case of CN1CC[C@]23c4c5ccc(O)c4O[C@H]2[C@@H](O)C=C[C@H]3[C@H]1C5 [morphine], the additional pain relief (human patients [6]; Patient D, topical 2.5 mg in 0.5 ml Pass-gel, despite regular hydromorphone) is listed as 20-30% and the “morphine levels in blood or urine” value [7] is listed as “not detected”.
For Clc1ccc2nsnc2c1NC1=NCCN1 [tizanidine], the “state of spastic upper extremity” value (patient; after a few months of continued therapy) is given as “essentially back to normal”, the “state of spastic upper extremity” value (patient; within several weeks) is given as “visible improvement” and the “absorption after oral administration” value [8] is given as “completely absorbed”.
For COc1cccc(C2(O)CCCCC2CN(C)C)c1 (stereo not drawn) [tramadol], the narcotic withdrawal symptoms (patients [5]) was “no significant narcotic withdrawal symptoms”, the pain relief (human patients [6]; Patient A, topical in Lipoderm, 40 mg tramadol hydrochloride dose twice daily, nuchal region and back) was “Pain relief is achieved” and the “pain in the neck after treatment” value (human patients [6]; Patient B, 15 minutes after 20 mg topical to nuchal region and lower back, baseline about 7-8/10) was “about 0 /10”. For the same molecule, the “pain in the back and legs after treatment” value (human patients [6]; Patient B, 15 minutes after 20 mg topical to nuchal region and lower back, baseline about 7/10) was “about 2 /10”, the “benefit of oral tablets in the past” value (human patients [6]; Patient B, tramadol (Ultram) tablets) was “without significant benefit” and the eventual pain relief (human patients [6]; [11]) was 80-90%. For the same molecule, the “time to initial reduction in pain” value (human patients [6]; [11]) was no more than 15 min, the “initial reduction in pain” value (human patients [6]; Patient C, right knee pain, 40 mg topical divided between knee (popliteal fossa) and lower back) was roughly 50% and the outcome (human patients [6]; Patient D, 40 mg topical at the nuchal region) was “with benefit”. For the same molecule, the reduction in pain (human patients [6]; [12]) was 70-80%, the “time to reduction in pain” value (human patients [6]; [12]) was 10 to 15 min and the pain relief (human patients [6]; [13]) was no less than 70%. The “time to pain relief” value (human patients [6]; [13]) was no more than 15 min, the “duration of pain relief” value (human patients [6]; [14]) was roughly 48 h and the “time to pain relief” value (human patients [6]; [14]) was no more than 15 min. The pain relief (human patients [6]; Patient H, 40 mg topical in 1 ml Lipoderm to neck and back in divided doses) was “greater than 80%”, the “outcome, pain (trigeminal neuralgia and cervical sprain)” value (human patients [6]; Patient J, topical 40 mg in 1 ml Lipoderm to the nuchal region) was “dramatic improvement in pain” and the “onset of withdrawal after the last dose” value (patients [9]; in most cases) was 12 to 20 h. The “duration of acute withdrawal symptoms” value (patients [9]; versus three or four days for other codeine analogues) was “seven days or more”.
For Meperidine, the “Calculated Dose (mg), equianalgesic” value [1] was 135.0 mg.
